In ChEMBL document CHEMBL3991601, “The target landscape of clinical kinase drugs” (Science, 2017) one finds Kd data, which are given here for 30 molecules.

Assay [1] deals with T1, Breakpoint cluster region protein (Homo sapiens, UniProt P11274).
T1 sequence (P11274 whole entry): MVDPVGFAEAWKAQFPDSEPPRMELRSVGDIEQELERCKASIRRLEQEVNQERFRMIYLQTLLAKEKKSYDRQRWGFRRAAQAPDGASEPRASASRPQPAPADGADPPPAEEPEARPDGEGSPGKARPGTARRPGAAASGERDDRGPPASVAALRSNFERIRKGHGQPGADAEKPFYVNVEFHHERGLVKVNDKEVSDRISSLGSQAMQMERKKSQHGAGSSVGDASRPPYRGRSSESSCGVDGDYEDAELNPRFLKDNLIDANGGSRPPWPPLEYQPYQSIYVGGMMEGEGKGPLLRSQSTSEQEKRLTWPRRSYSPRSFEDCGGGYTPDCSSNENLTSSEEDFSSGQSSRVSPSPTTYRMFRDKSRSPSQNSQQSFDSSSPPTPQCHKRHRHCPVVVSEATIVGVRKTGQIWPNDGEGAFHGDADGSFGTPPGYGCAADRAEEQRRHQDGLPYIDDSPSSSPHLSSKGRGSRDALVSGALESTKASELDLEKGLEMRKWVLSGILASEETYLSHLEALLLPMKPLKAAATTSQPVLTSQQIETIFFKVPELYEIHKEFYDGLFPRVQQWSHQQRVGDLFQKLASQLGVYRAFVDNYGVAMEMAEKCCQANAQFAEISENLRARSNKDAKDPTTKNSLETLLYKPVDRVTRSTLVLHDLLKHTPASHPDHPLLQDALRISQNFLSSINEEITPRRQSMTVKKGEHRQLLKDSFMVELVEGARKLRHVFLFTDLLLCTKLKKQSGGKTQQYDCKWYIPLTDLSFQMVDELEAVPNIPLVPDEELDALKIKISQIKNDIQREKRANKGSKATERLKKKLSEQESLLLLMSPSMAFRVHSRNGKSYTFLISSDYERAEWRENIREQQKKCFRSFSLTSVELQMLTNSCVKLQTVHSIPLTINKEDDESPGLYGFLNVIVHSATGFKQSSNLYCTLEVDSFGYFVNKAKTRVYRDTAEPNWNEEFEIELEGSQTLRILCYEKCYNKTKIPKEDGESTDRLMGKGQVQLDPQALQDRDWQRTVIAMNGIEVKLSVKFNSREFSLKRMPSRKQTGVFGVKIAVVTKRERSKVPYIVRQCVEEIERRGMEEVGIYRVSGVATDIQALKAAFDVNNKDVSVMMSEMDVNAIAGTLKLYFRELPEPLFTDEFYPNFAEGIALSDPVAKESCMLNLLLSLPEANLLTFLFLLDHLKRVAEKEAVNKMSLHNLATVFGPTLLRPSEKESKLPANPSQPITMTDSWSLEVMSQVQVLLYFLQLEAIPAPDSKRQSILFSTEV

Assay [2] deals with T2, Succinate--CoA ligase [ADP-forming] subunit beta, mitochondrial (Homo sapiens, UniProt Q9P2R7).
T2 sequence (Q9P2R7 whole entry): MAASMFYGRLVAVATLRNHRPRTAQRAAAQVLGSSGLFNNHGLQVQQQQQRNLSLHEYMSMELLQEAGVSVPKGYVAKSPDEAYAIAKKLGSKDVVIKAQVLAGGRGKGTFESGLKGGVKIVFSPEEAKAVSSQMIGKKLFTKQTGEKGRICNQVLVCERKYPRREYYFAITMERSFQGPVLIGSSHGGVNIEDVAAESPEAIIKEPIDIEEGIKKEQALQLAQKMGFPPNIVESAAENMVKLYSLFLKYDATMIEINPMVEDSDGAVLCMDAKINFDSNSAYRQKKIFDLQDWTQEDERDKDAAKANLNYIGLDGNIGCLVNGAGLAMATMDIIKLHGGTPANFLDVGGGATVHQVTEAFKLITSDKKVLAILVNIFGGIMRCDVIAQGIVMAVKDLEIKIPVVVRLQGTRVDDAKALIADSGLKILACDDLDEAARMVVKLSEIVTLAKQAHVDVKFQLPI

Assay [3] has as its target T3, Septin-9 (Homo sapiens, UniProt Q9UHD8).
T3 sequence (Q9UHD8 whole entry): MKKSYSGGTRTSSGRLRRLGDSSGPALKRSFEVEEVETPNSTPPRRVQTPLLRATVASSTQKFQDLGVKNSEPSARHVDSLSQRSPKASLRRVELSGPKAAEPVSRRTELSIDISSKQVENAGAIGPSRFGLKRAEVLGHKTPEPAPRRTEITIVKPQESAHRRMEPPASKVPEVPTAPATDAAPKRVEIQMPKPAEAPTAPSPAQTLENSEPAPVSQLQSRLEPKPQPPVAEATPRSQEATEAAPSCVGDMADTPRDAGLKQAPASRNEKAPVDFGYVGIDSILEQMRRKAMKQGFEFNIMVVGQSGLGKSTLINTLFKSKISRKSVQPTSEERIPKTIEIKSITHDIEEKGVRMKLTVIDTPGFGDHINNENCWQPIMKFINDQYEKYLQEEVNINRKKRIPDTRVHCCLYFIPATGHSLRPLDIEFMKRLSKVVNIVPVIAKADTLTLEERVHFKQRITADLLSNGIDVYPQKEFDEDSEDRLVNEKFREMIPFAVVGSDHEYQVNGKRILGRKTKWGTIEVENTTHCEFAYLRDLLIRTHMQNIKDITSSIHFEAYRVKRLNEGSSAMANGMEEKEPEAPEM

Calls of active or inactive are those of the source.
Note: in the data inactive means no Kd found up to 30 µM.

For `C[C@@H](Oc1cc(C(=O)Nc2ccc(C(=O)N3CCN(C)CC3)cc2)nnc1N)c1c(Cl)ccc(F)c1Cl`, the Kd in assay [1] and in assay [2] was > 30 µM (inactive) throughout.

Regarding `C[C@H]1CNCCCN1S(=O)(=O)c1cccc2cncc(F)c12`, the Kd in assay [1], in assay [3] and in assay [2] was > 30 µM (inactive) in each case.

With `CC(=O)c1cnc2ccc(-c3cc(Cl)c(O)c(Cl)c3)nc2c1N[C@H]1CC[C@H](CN(C)C)CC1`, the Kd in assay [1] is 0.014 µM (active); in assay [3], > 30 µM (inactive); in assay [2] it was > 30 µM (inactive).

Turning to `CCNC(=O)C#Cc1ccc2c(c1)NC(=O)/C2=C(\Nc1ccc(CN(C)C)cc1)c1ccccc1`, the Kd in assay [1], in assay [3] and in assay [2] was > 30 µM (inactive) in each case.

Take `C=CC(=O)N1CCC[C@H](n2c(=O)n(-c3ccc(Oc4ccccc4)cc3)c3c(N)ncnc32)C1`: the Kd in assay [1], in assay [3] and in assay [2] was > 30 µM (inactive) each time.

As for `Cc1nc2cc(-c3nn(C(C)C)c4ncnc(N)c34)ccc2o1`, the Kd in assay [1], in assay [3] and in assay [2] was > 30 µM (inactive) in each case.

`COCc1c(-c2ccc(NC(=O)Nc3cc(C(F)(F)F)ccc3F)c(F)c2)c2c(N)ncnn2c1CN1CCOCC1`: the Kd in assay [1] was 4.21 µM (active); in assay [3] it was > 30 µM (inactive); in assay [2] it was > 30 µM (inactive).

With `Nc1ncnc2c1c(-c1cccc(OCc3ccccc3)c1)cn2[C@H]1C[C@@H](CN2CCC2)C1` [AEW-541], the Kd in assay [1], in assay [3] and in assay [2] was > 30 µM (inactive) in each case.

Regarding `COc1cc(Nc2ncc3c(n2)-c2ccc(Cl)cc2C(c2c(F)cccc2OC)=NC3)ccc1C(=O)O` [ALISERTIB], the Kd in assay [1], in assay [3] and in assay [2] was > 30 µM (inactive) in each case.

As for `Cc1nc(NC(=O)N2CCC[C@H]2C(N)=O)sc1-c1ccnc(C(C)(C)C(F)(F)F)c1` [ALPELISIB], the Kd in assay [1], in assay [3] and in assay [2] was > 30 µM (inactive) each time.

For the molecule `Cc1csc(-c2nnc(Nc3ccc(Oc4ncccc4-c4ccnc(N)n4)cc3)c3ccccc23)c1` [AMG-900], the figures for the Kd in assay [1] and in assay [3] were 1.97 µM (active) and > 30 µM (inactive), respectively.

Take `O=C(Nc1c[nH]nc1-c1nc2cc(CN3CCOCC3)ccc2[nH]1)NC1CC1` [AT-9283]: the Kd is 0.156 µM (active) in assay [1], > 30 µM (inactive) in assay [3] and > 30 µM (inactive) in assay [2].

In the case of `C=CC(=O)Nc1cc2c(Nc3ccc(F)c(Cl)c3)ncnc2cc1C#CC(C)(C)N1CCN(C)CC1` [AV-412 FREE BASE], the Kd in assay [1], in assay [3] and in assay [2] was > 30 µM (inactive) throughout.

Regarding `CNC(=O)c1ccccc1Sc1ccc2c(/C=C/c3ccccn3)n[nH]c2c1` [AXITINIB], the Kd in assay [1] is 0.188 µM (active); in assay [3], > 30 µM (inactive); in assay [2] it was > 30 µM (inactive).

In the case of `COc1cc([C@@H]2c3cc4c(cc3[C@H](O)[C@H]3COC(=O)[C@@H]23)OCO4)cc(OC)c1OC` [AXL-1717], the Kd in assay [1], in assay [3] and in assay [2] was > 30 µM (inactive) throughout.

Turning to `NC(=O)Nc1cc(-c2cccc(F)c2)sc1C(=O)N[C@H]1CCCNC1` [AZD-7762], in assay [3], the Kd was > 30 µM (inactive).

As for `Cc1cc(C(=O)NOCCO)c(Nc2ccc(I)cc2F)n(C)c1=O` [AZD-8330], the Kd in assay [1] and in assay [3] was > 30 µM (inactive) in each case.

Turning to `Cn1cnc2c(F)c(Nc3ccc(Br)cc3F)c(C(=O)NOCCO)cc21` [BINIMETINIB], the Kd in assay [1], in assay [3] and in assay [2] was > 30 µM (inactive) in each case.

Regarding `CCn1c(C(=O)N(C2CC2)C2CC2)cc2c3c(ncn3C)c(Nc3cc(C)n(C)n3)nc21` [BMS-911543], the Kd in assay [1], in assay [3] and in assay [2] was > 30 µM (inactive) throughout.

For the molecule `COc1cc2ncnc(Oc3cccc(NC(=O)Nc4cc(C(C)(C)C(F)(F)F)on4)c3)c2cc1OC` [CEP-32496], the Kd in assay [1] is 0.041 µM (active); in assay [3] it was > 30 µM (inactive); in assay [2], > 30 µM (inactive).

Take `Cc1cc(Nc2ncc(Cl)c(Nc3ccccc3S(=O)(=O)C(C)C)n2)c(OC(C)C)cc1C1CCNCC1` [CERITINIB]: the Kd in assay [1], in assay [3] and in assay [2] was > 30 µM (inactive) in each case.

With `C#Cc1cccc(Nc2ncnc3cc(OC)c(OCCCCCCC(=O)NO)cc23)c1` [CUDC-101], the Kd in assay [1] and in assay [3] was > 30 µM (inactive) in each case.

Take `CC(C)(C)c1nc(-c2cccc(NS(=O)(=O)c3c(F)cccc3F)c2F)c(-c2ccnc(N)n2)s1` [DABRAFENIB]: the Kd in assay [1] and in assay [3] was > 30 µM (inactive) throughout.

In the case of `CCn1cc(-c2ccnc3[nH]c(-c4cccc(CN(C)C)c4)cc23)c(-c2ccc(NC(=O)N(C)C)cc2)n1` [GSK-1070916], the Kd in assay [1] and in assay [3] was > 30 µM (inactive) each time.

With `COc1ccc(S(=O)(=O)N(C(C)=O)c2ccccc2/C=C/c2cc[n+]([O-])cc2)cc1` [HMN-214], the Kd in assay [1] and in assay [3] was > 30 µM (inactive) each time.

Turning to `Cc1[nH]c(/C=C2\C(=O)Nc3ccccc32)c(C)c1CCC(=O)O` [ORANTINIB], the Kd in assay [1] and in assay [3] was > 30 µM (inactive) throughout.

Regarding `CC(=O)NCC(=O)N1[C@@H]2CC[C@H]1c1ccc(Nc3ncc(C(F)(F)F)c(NC4CCC4)n3)cc12` [PF-03814735], the Kd in assay [1] is 10.8 µM (active); in assay [3], > 30 µM (inactive).

In the case of `Cc1cnc(NC(=O)Nc2cc(Br)c(C)cc2OC[C@@H]2CNCCO2)cn1` [RABUSERTIB], the Kd in assay [1] and in assay [3] was > 30 µM (inactive) throughout.

With `CO[C@H]1C[C@@H]2CC[C@@H](C)[C@@](O)(O2)C(=O)C(=O)N2CCCC[C@H]2C(=O)O[C@H]([C@H](C)C[C@@H]2CC[C@@H](OP(C)(C)=O)[C@H](OC)C2)CC(=O)[C@H](C)/C=C(\C)[C@@H](O)[C@@H](OC)C(=O)[C@H](C)C[C@H](C)/C=C/C=C/C=C/1C` [RIDAFOROLIMUS], the Kd in assay [1] and in assay [3] was > 30 µM (inactive) each time.

As to `CN1CCN(CCOc2cc(OC3CCOCC3)c3c(Nc4c(Cl)ccc5c4OCO5)ncnc3c2)CC1` [SARACATINIB], the Kd in assay [1] was 0.016 µM (active); in assay [3] it was > 30 µM (inactive).

In general, Kd refers to a measure of binding affinity in units of concentration.
